A melting point compilation (Tetko et al.; mined from patent text by program, amines drawn as free bases though some values may be those of a salt)

Row | Structure (SMILES) | melting point [°C]
1 | COC(=O)C(C)(C)OCC#Cc1cc(Cl)ccc1NS(=O)(=O)c1ccc2c(c1)OCCN2C | 98 to 100
2 | Cc1c(OCC(F)(F)F)ccnc1CSc1nc2cc(OC(F)F)ccc2n1N | 179 to 180
3 | CCCCCCCCCCC1(CCCCCCCCCC)c2cc(C=O)ccc2-c2ccc(N(c3ccccc3)c3ccccc3)cc21 | 77 to 78.5
4 | Cc1cc(F)ccc1-c1nc(OCC(CO)CO)nc2c1ccc(=O)n2-c1c(F)cccc1F | 77 to 81
5 | N#CCc1c[nH]c2cccc(Cl)c12 | 134 to 136
6 | Cc1c(C(=O)O)ccc(S(C)(=O)=O)c1C1=NOCC1 | 182 to 184
7 | CCCCCc1cc(N)cc(O)c1 | 88 to 91
8 | CCCc1nn(C)c2c(=O)[nH]c(-c3cc(C(=O)CBr)ccc3OCC)nc12 | 159 to 160
9 | O=S(=O)(CC1CS1)c1ccc(Oc2ccccc2)cc1 (stereo not given) | 99 to 101
10 | CS(=O)(=O)c1c(Cl)nc(N)nc1Cl | 275
11 | CCCSc1ccc(C(=O)C(=O)O)[nH]1 | 87
12 | CN(C)Cc1cc2c(cc1O)CCC1C2CCC2(C)C(=O)CCC12 (stereo not given) | 172 to 173
13 | CCOC(=O)c1nn(-c2ccc(Cl)cc2Cl)c(-c2ccc(Br)cc2)c1CBr | 116
14 | C#Cc1cc2c(Nc3ccc(OCc4cccc(F)c4)c(Cl)c3)ncnc2s1 | 197
15 | CC1OC(C)C(C(=O)O)C1=O (stereo not given) | 55 to 57
16 | CNC1C(C)CN(c2c(F)c(N)c3c(=O)c(C(=O)O)cn(C4CC4)c3c2OC)CC1C (stereo not given) | 224 to 226
17 | COC=Nc1cc(-c2ncon2)nn1-c1c(Cl)cc(C(F)(F)F)cc1Cl | 113 to 114
18 | O=C(O)C1=CCN(c2ncccc2F)CC1 | 119 to 120
19 | CC(C)CCS(=O)C1=C(O)CC(C)(C)CC1=O (stereo not given) | 64.5 to 66

Row | Structure (SMILES) | melting point [°C]
20 | CS(=O)(=O)c1ccc(-n2nc(C(F)(F)F)cc2-c2ccc(-c3ccco3)cc2)cc1 | 196
21 | O=C(CCCCCN1C(=O)c2ccc([N+](=O)[O-])cc2C1=O)NO | 130 to 132
22 | CC(C)(C)OC(=O)N1CCN(C2CC2)CC1 | 65 to 67
23 | CCCCCCON=C(C(=O)OCC)c1csc(N)n1 | 77 to 78
24 | CCOC(=O)C(C#N)=CNc1ccc(CC)cn1 | 155 to 156
25 | N=C(N)NCCCc1nccs1 | 160 to 163
26 | CCOC(=O)c1nc(N)nc(N)c1-c1ccc(Cl)cc1Cl | 178
27 | COc1ccc(N2CCCC2=O)cc1OC1CCCC1 | 130 to 131
28 | Cc1ccc(S(=O)(=O)Nc2c(C)c(C)c3c(c2C)CC(C)(C)O3)cc1 | 219 to 220
29 | Cc1ccc(S(=O)(=O)NC(=O)Nc2c(Br)cc(Br)cc2Br)cc1 | 230
30 | O=[N+]([O-])c1cnn2c(-c3ccncc3)ccnc12 | 241 to 244
31 | Nc1[nH]nc(-c2ccncc2)c1-c1ccc(F)cc1 | 116 to 118
32 | CCC(c1cccs1)c1c(O)c2c(oc1=O)CCCCCC2 (stereo not given) | 163 to 165
33 | CNc1nc(NCc2ccc(NC(=O)c3ccc(F)cc3)cc2)c2c(C)cccc2n1 | 228 to 230
34 | COC(=O)CCc1cc(C)cc(NC(C)=O)n1 | 82
35 | O=C(C=Cc1ccncc1)C=Cc1ccncc1 | 145 to 146
36 | NCCC1CCc2ccc3c(c21)NC(=O)CO3 (stereo not given) | 128 to 134
37 | CCCCN(C)c1nsc(N)c1C#N | 87 to 89
38 | CCCCc1noc(-c2sccc2N)n1 | 69 to 70

Row | Structure (SMILES) | melting point [°C]
39 | CCSc1nc2c(N)nc(-c3ccncc3)nc2[nH]1 | 168 to 170
40 | COc1ccc(Cn2nnnc2C(=O)Nc2cc(Cl)cc(NC(=O)c3nnnn3Cc3ccc(OC)cc3)n2)cc1 | 201 to 203
41 | CNC(=C[N+](=O)[O-])NCC(O)COc1cccc(CN2CCCCC2)c1 (stereo not given) | 45 to 50
42 | CCc1cc(C)cc(CC)c1C(C(=O)NC)C(=O)NC | 98 to 100
43 | CCOC(=O)c1cnn(C)c1C(=O)Nc1ccn2nc(Br)nc2c1 | 177 to 180
44 | C#CCN(CC#C)c1cc(OC)c(OC)c(OC)c1 | 62 to 63
45 | CCCCCCCCS(=O)(=O)c1ccc(CC(N)(CO)CO)cc1 | 108 to 109
46 | CCOC(=O)c1[nH]c(C)c(C)c1CC | 95 to 97
47 | CC(=O)OCc1c(Br)cccc1N1CCn2c(nc3c2CCCC3)C1=O | 205 to 206
48 | Cc1cccc(Cl)c1OC1CN(C(=O)Cl)C1 | 67 to 69
49 | OC(c1ccc(C(F)(F)F)cc1)c1ccc(C(F)(F)F)cc1 | 80
50 | O[C@H](CCc1cccnc1)COc1ccc(-c2ccc(Cl)cc2)cc1 | 117 to 118
51 | Cc1ncc2n1-c1ccc(Cl)cc1C(c1ccccc1F)N(N=O)C2 (stereo not given) | 139 to 145
52 | Cc1cc(S(C)(=O)=O)ccc1C(=O)c1c(S(C)=O)noc1C1CC1 (stereo not given) | 142
53 | COc1cc(Nc2c(C#N)cnc3ccc(/C=C/CCN4CCOCC4)cc23)cc(OC)c1OC | 86 to 87
54 | COC(=O)C(C)Oc1ccc(NC(=O)OCCOC(=O)Nc2ccc(OC(C)C(=O)OC)cc2)cc1 (stereo not given) | 98 to 100
55 | COc1cc(Nc2c(C#N)cnc3c2C=C2N=CN=C2C3)cc(OC)c1OC | > 260
56 | CCNCC1CCN(c2c(F)cc3c(=O)c(C(=O)O)cn(C4(C)CC4)c3c2F)C1 (stereo not given) | 261 to 263

Continued, values first:

Row | melting point [°C] | Structure (SMILES)
57 | 89 | COc1ccc(OC)c(C(=O)CC(O)C(=O)O)c1 (stereo not given)
58 | 166 to 167 | Cc1cc(C2N(c3ccccc3)CCN2c2ccccc2)cc(C)c1O
59 | 103 | CCOC(=O)COc1ccc(C(=O)c2ccoc2)c2ccccc12
60 | 46.8 to 49.2 | COCOc1ccc2cc(Br)ccc2c1
61 | 186 to 187 | Cc1c(NC(=O)c2ccc(OCc3ccccc3)cc2)ccc2cc(CN3CCCCC3)cnc12
62 | 177 to 178 | CCN(c1ccc(C)c2cc(-c3ncc(CCl)s3)[nH]c12)S(=O)(=O)c1cccs1
63 | 251 to 252 | CC1(C)Oc2ccc(C#N)cc2C(n2nc(O)ccc2=O)C1O (stereo not given)
64 | 184 to 185 | O=Cc1ccc(-c2ccc(O)cc2)c2ccoc12
65 | 161 to 165 | COc1ccc(Nc2cncc(-c3cccc(Nc4ccccn4)c3)c2)cc1
66 | 58 to 62 | CN(CCCc1ccccc1)[C@H]1CC[C@H](c2ccc3[nH]c(=O)oc3c2)CC1
67 | 74 to 75 | Cc1c(C2=CCC(Cc3ccccc3)(N(C)C)CC2)[nH]c2ccc(OC(F)(F)F)cc12 (stereo not given)
68 | 298 to 301 | Cc1cn(-c2nc(Nc3cccc(NS(C)(=O)=O)c3)nc3[nH]cnc23)cn1
69 | 175 to 176 | CC(C)(C)OC(=O)NCCCCNC1(c2ccccc2Cl)C(=O)Nc2ccc(Cl)cc21 (stereo not given)
70 | 115 to 119 | CCN(CC)C(=O)c1cccc(C=O)c1
71 | 161 | CSc1ccc(C(C)=Cc2ccc3ccccc3c2)cc1
72 | 81 to 82 | O=C1N(Cc2cccnn2)c2ccccc2C12COc1cc3c(cc12)CCO3 (stereo not given)
73 | 206 | c1ccc2c(c1)C[C@H]1CSC(=Nc3cccc4ccncc34)N1C2
74 | 120 to 122 | C[Si](C)(C)c1sc(C=O)cc1Oc1ccccc1
75 | 210 | Cc1cccc(-c2sc(N)nc2-c2ccnc(-c3ccc(CN(C)C)cc3)c2)n1
76 | 164 to 168 | Cc1noc(NS(=O)(=O)c2ccccc2-c2ccc(-c3ncco3)cc2Cn2ccc(-c3ccccc3)n2)c1C
77 | 242 to 248 | Clc1ccc(Nc2nc(-c3cccc(Br)n3)nc3ccccc23)cc1
78 | 114 to 116 | CCOC(=O)CN1C(=O)C(Br)CCc2ccccc21 (stereo not given)
79 | 241 to 243 | COc1cc2cc3c(ccc4cc(Cl)ccc43)nc2cc1OC
80 | 274 to 275 | CC(C)(C)COc1ccc(N(CC(=O)O)C(=O)c2cnn(-c3ccc(F)cc3)c2)cc1C#N
81 | 151 to 152 | CC(C)c1ccc2c(c1)OC1(O)c3ccccc3C(=O)C21N (stereo not given)

Row | melting point [°C] | Structure (SMILES)
82 | 112 to 113 | OCc1cn(Cc2ccc(OCc3ccccc3)cc2)nc1-c1ccc(F)cc1
83 | 134 to 137 | N#Cc1ccc2cc(CBr)ccc2c1
84 | 126 to 128 | COc1ccc(NN=C(Sc2ccc(OC)cc2)C(C)=O)cc1
85 | 174 to 177 | CC(C)Oc1ccc2c(c1)C(=O)c1ccc(C(=O)O)cc1CC2
86 | 215 to 218 | COc1ccc(NC(=O)c2ccc(Cl)c(Cl)c2)cc1[N+](=O)[O-]
87 | 241 | COc1cc(C(=O)c2nc(C(N)=O)c3ccccn23)ccc1N
88 | 115 to 116 | OCc1cn(-c2ccc(Cl)cc2)cn1
89 | 218 to 220 | CC(CC(=O)c1ccccc1)C(=O)N1CCC[C@H]1C(=O)O (stereo not given in full)
90 | 122 to 124 | CCN1CCN2C(=O)c3ccccc3C12c1ccccc1 (stereo not given)
91 | 213 to 225 | C[C@@H](n1cnc2cc(-c3ccc(F)cc3)sc2c1=O)[C@](O)(Cn1cncn1)c1ccccc1F
92 | 213 | Cc1cc(C)cc(-c2nc3ccc(O)cc3n2Cc2ccccc2CBr)c1
93 | 134 to 135 | CCN1C=C(C(=O)OC)C(=O)CC1c1ccc(OC)c(OC)c1 (stereo not given)
94 | 164 | CC(C)(CNC1(c2ccccc2Cl)C(=O)Nc2ccc(Cl)cc21)NC(=O)OC(C)(C)C (stereo not given)
95 | 169 to 171 | Nc1ncnc2c1c(-c1ccc(Oc3ccccc3CN3CCOCC3)cc1)cn2C1CCOC1 (stereo not given)
96 | 82 | O=S(=O)(Nc1ccccc1O)c1ccc(Cl)cc1
97 | 143 to 144 | COc1ccc(Cn2c(O)nc3c(-c4ccco4)ncnc32)cc1
98 | 206 to 208 | COC(=O)c1cc(NC(=O)Nc2ccccc2)ccn1
99 | 156 to 159 | COC(=O)c1ccc2c(c1)NC(=O)C(C)O2 (stereo not given)
100 | 278 to 280 | O=c1[nH]c2ccccc2c2nc(-c3ccccc3)cn12
101 | 174 to 175 | COc1ccc(-n2nc(-c3ccc(C)cc3)c(C(N)=O)c2N)cc1
102 | 118 to 120 | CC(=O)c1cc(OCC(O)COc2ccc(C#N)cc2)ccc1O (stereo not given)
103 | 117 to 119 | O=C(NC(Cc1c[nH]c2ccccc12)C(=O)O)C(S)Cc1ccccc1 (stereo not given)
104 | 130 to 135 | CCn1nccc1Nc1cc(OC)ccc1C(=O)O
105 | 262 to 264 | CS(=O)(=O)c1ccc(-c2[nH]c3ccc(Br)cc3c2-c2ccccc2)cc1
